Experiment [1] concerns the target T1, kinases from mixed HeLa placenta lysates (Homo sapiens, UniProt Q13131).
T1 construct: capturing and identification of kinases from mixed HeLa placenta lysates; endogenous in cells; host or cells: mixed lysate of HeLa cells and placenta tissue
Description: Kinobeads competition binding with immobilized CZC25342, mixed HeLa placenta lysates (Example 5, Table 7). The settings on record: kinase AMPKa1; 10 μM free compound; HeLa Placenta lysate mix. How it is done:
(§1) To one aliquot of cell lysate 10 μM of the free compound (FIG. 2, CZC25342) was added and allowed to bind to proteins in the lysate. Then the affinity matrix with the immobilized compound was added to capture proteins that were not interacting with the previously added free compound. Beads were separated from the lysate and bead bound proteins were eluted in SDS sample buffer and subsequently separated by SDS-Polyacrylamide gel electrophoresis (FIG. 11). Suitable gel bands were cut out and subjected to in-gel proteolytic digestion with trypsin. The second lysate aliquot was processed identically, however no free compound was added (DMSO solvent control). Peptides originating from samples 1 and 2 were labeled with iTRAQ reagents (iTRAQ 114 and iTRAQ 117) and the combined samples were analyzed with a nano-flow liquid chromatography system coupled online to a tandem mass spectrometer (LC-MS/MS) experiment followed by iTRAQ reporter ion quantification in the MS/MS spectra as described in Example 2. The identified kinases are shown in Table 7 including the percent competition values for the sample to which 10 μM free compound had been added. In total of 83 different kinases were identified and competed by different degrees.

Experiment [2] addresses T2, kinases from mixed HeLa placenta lysates (Homo sapiens, UniProt Q7KZI7).
T2 construct: capturing and identification of kinases from mixed HeLa placenta lysates; endogenous in cells; host or cells: mixed lysate of HeLa cells and placenta tissue
The description is as above. The settings on record: kinase MARK2; 10 μM free compound; HeLa Placenta lysate mix. How it is done: as §1

Experiment [3] addresses T3, kinases from mixed HeLa placenta lysates (Homo sapiens, UniProt P12931).
T3 construct: capturing and identification of kinases from mixed HeLa placenta lysates; endogenous in cells; host or cells: mixed lysate of HeLa cells and placenta tissue
The description is as above. To be noted: kinase SRC; 10 μM free compound; HeLa Placenta lysate mix. How it is done: as §1

Experiment [4] has as its target T4, kinases from mixed HeLa placenta lysates (Homo sapiens, UniProt Q14289).
T4 construct: capturing and identification of kinases from mixed HeLa placenta lysates; endogenous in cells; host or cells: mixed lysate of HeLa cells and placenta tissue
The experiment is described as above. The settings on record: kinase PYK2; 10 μM free compound; HeLa Placenta lysate mix. As to the method: as §1

Experiment [5] has as its target T5, kinases from mixed HeLa placenta lysates (Homo sapiens, UniProt P35916).
T5 construct: capturing and identification of kinases from mixed HeLa placenta lysates; endogenous in cells; host or cells: mixed lysate of HeLa cells and placenta tissue
The description is as above. The settings on record: kinase FLT4; 10 μM free compound; HeLa Placenta lysate mix. As to the method:
as §1

Experiment [6] deals with T6, kinases from mixed HeLa placenta lysates (Homo sapiens, UniProt Q02763).
T6 construct: capturing and identification of kinases from mixed HeLa placenta lysates; endogenous in cells; host or cells: mixed lysate of HeLa cells and placenta tissue
The description is as above. The settings on record: kinase TIE2; 10 μM free compound; HeLa Placenta lysate mix. How it is done:
as §1

Experiment [7] deals with T7, kinases from mixed HeLa placenta lysates (Homo sapiens, UniProt Q99683).
T7 construct: capturing and identification of kinases from mixed HeLa placenta lysates; endogenous in cells; host or cells: mixed lysate of HeLa cells and placenta tissue
The description is as above. The settings on record: kinase MAP3K5; 10 μM free compound; HeLa Placenta lysate mix. As to the method:
as §1

Experiment [8] addresses T8, kinases from mixed HeLa placenta lysates (Homo sapiens, UniProt Q08345).
T8 construct: capturing and identification of kinases from mixed HeLa placenta lysates; endogenous in cells; host or cells: mixed lysate of HeLa cells and placenta tissue
The experiment is described as above. To be noted: kinase DDR1; 10 μM free compound; HeLa Placenta lysate mix. As to the method:
as §1

The target of experiment [9] is T9, kinases from mixed HeLa placenta lysates (Homo sapiens, UniProt P42680).
T9 construct: capturing and identification of kinases from mixed HeLa placenta lysates; endogenous in cells; host or cells: mixed lysate of HeLa cells and placenta tissue
The description is as above. To be noted: kinase TEC; 10 μM free compound; HeLa Placenta lysate mix. As to the method:
as §1

Experiment [10] deals with T10, kinases from mixed HeLa placenta lysates (Homo sapiens, UniProt Q96RR4).
T10 construct: capturing and identification of kinases from mixed HeLa placenta lysates; endogenous in cells; host or cells: mixed lysate of HeLa cells and placenta tissue
Described as above. To be noted: kinase CaMKK2; 10 μM free compound; HeLa Placenta lysate mix. As to the method: as §1

A further experiment deals with T11, NEK9 (Homo sapiens, UniProt Q8TD19).
T11 sequence (Q8TD19 1-979): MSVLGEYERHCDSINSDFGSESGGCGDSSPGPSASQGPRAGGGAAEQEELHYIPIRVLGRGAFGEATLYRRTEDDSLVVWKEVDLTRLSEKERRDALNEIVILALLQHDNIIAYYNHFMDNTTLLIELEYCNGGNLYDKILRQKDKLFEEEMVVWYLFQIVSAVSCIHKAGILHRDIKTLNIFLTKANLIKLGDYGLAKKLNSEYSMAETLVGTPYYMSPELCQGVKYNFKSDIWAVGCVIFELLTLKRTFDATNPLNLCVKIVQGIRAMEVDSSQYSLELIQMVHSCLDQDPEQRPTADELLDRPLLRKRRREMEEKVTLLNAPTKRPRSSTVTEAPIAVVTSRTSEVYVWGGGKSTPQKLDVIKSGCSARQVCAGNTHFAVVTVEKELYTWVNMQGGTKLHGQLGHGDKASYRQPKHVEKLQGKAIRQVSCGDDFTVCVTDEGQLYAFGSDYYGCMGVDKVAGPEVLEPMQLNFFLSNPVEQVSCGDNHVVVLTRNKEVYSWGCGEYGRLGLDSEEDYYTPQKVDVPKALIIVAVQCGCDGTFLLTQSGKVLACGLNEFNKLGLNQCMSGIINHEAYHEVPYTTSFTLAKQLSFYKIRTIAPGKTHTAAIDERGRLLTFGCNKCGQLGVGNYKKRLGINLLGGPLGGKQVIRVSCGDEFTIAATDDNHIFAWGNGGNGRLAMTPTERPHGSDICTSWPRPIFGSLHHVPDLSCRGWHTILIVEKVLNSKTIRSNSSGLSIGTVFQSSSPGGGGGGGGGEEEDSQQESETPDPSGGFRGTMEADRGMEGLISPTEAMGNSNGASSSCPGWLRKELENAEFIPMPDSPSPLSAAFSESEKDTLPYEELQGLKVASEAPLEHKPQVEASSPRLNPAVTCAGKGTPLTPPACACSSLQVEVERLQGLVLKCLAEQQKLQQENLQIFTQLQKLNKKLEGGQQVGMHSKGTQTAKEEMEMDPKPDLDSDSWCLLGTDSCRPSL
Description: Kinobeads competition binding, L-363 cell lysate. Further details: endogenous in cells; host or cells: L-363 (MG132-treated). To be noted: 10 μM free compound, L-363 lysate. How it is done:
as §1, with “3, CZC31326)” for “2, CZC25342)”, “8).” for “11).”, “2.” for “2. The identified kinases are shown in Table 7 including the percent competition values for the sample to which 10 μM free compound had been added. In total of 83 different kinases were identified and competed by different degrees.”
For this experiment the human plasma cell leukaemia line L-363 was used (German Collection of Microorganisms and Cell Cultures, DSMZ number ACC49, Braunschweig, Germany). Cells were treated for three hours with 20 μM of the proteasome inhibitor MG132 (Z-Leu-Leu-Leu-al, Sigma C2211) prior to cell harvesting.

The structures appear in SMILES notation.

As a reminder, the inhibition is the share of the control response that was lost under treatment. A low value points to a response near the control.

T1 sequence (Q13131 whole entry): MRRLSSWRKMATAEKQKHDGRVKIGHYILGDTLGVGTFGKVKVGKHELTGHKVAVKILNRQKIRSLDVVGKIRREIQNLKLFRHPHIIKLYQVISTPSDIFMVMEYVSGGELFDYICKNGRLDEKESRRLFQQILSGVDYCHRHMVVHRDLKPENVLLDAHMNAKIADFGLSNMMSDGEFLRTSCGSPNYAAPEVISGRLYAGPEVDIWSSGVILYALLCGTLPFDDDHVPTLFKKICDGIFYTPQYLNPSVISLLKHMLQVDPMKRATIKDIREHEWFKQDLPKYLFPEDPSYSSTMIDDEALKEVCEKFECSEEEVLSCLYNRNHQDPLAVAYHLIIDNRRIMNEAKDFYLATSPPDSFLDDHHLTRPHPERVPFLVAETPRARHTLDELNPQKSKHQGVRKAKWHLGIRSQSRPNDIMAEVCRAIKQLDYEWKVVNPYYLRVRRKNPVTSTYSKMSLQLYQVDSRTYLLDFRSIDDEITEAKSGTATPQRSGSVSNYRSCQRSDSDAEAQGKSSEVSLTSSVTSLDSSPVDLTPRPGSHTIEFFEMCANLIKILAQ
T9 sequence (P42680 whole entry): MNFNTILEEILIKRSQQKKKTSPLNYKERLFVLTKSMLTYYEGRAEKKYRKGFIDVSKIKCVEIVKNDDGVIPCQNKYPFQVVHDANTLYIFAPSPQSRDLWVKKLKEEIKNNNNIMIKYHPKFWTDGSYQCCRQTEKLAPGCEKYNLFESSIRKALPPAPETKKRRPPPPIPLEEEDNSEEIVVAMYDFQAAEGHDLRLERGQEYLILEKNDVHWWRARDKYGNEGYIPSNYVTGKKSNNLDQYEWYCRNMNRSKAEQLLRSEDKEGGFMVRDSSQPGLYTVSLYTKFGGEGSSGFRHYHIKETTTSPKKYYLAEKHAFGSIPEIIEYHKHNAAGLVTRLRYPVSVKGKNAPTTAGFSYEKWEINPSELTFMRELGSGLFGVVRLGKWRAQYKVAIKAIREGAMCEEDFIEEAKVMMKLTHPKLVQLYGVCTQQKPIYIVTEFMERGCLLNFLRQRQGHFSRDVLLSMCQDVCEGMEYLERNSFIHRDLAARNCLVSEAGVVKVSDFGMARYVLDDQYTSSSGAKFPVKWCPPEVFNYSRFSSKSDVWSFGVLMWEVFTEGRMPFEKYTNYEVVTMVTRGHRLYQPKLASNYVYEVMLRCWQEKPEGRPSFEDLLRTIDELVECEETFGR
T2 sequence (Q7KZI7 whole entry): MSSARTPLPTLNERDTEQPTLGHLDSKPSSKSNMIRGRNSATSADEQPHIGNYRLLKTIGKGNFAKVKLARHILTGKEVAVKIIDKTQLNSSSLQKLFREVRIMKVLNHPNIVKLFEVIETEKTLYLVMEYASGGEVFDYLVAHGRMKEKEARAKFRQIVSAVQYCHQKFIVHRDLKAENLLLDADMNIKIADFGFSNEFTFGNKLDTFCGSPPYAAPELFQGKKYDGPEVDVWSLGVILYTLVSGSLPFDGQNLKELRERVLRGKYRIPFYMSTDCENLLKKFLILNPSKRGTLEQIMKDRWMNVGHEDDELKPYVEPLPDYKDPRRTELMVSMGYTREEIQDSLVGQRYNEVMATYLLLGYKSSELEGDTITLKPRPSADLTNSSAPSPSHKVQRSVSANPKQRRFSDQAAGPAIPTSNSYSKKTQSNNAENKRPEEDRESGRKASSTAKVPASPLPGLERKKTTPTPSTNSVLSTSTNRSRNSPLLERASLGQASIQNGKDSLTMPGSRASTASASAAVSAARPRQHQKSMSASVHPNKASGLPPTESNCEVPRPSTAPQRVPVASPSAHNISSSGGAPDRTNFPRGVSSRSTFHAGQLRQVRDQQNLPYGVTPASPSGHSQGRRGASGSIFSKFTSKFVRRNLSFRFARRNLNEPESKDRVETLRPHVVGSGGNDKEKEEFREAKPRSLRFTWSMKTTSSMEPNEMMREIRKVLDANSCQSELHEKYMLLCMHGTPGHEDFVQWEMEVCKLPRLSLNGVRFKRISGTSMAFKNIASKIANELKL
T6 sequence (Q02763 23-1124): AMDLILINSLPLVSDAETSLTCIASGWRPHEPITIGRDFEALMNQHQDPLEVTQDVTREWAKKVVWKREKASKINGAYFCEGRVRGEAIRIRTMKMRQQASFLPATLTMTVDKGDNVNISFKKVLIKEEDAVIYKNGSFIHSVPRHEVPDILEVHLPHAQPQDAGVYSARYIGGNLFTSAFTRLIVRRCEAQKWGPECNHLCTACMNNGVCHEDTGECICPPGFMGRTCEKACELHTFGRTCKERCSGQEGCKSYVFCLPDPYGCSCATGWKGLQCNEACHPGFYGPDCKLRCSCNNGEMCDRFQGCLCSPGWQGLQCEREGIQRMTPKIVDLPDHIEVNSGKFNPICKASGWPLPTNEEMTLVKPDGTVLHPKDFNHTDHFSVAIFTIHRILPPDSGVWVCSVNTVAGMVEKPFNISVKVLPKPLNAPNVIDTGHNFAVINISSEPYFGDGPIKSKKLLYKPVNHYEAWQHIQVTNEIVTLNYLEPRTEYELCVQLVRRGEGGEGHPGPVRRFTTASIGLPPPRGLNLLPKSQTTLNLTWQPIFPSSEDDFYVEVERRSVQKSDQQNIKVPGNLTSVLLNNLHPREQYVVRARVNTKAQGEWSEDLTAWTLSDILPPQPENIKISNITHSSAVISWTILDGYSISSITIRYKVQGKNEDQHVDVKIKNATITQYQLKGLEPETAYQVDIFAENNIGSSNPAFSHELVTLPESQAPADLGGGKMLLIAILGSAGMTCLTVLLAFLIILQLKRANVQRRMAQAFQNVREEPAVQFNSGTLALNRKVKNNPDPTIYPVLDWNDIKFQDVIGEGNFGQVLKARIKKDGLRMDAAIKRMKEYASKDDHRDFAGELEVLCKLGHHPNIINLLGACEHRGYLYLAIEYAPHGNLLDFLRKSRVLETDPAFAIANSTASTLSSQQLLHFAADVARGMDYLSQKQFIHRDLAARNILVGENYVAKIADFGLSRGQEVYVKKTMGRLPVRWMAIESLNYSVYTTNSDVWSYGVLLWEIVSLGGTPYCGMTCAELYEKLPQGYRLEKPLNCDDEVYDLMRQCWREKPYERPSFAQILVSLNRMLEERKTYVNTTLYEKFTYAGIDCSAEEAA
T10 sequence (Q96RR4 whole entry): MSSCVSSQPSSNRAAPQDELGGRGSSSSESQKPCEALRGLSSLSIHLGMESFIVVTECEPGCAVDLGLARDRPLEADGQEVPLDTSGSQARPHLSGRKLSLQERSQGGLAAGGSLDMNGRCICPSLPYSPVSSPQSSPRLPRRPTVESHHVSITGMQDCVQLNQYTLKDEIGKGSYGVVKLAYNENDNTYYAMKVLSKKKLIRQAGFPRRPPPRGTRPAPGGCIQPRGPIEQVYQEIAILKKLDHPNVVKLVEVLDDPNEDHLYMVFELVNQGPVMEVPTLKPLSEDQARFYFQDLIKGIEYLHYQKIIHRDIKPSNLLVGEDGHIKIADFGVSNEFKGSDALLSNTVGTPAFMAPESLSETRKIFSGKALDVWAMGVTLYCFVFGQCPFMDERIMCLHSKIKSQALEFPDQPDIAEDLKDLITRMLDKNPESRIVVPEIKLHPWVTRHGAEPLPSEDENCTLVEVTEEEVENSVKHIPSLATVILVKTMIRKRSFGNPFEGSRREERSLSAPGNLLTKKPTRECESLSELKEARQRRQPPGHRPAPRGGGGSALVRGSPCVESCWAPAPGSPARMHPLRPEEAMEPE
T4 sequence (Q14289 whole entry): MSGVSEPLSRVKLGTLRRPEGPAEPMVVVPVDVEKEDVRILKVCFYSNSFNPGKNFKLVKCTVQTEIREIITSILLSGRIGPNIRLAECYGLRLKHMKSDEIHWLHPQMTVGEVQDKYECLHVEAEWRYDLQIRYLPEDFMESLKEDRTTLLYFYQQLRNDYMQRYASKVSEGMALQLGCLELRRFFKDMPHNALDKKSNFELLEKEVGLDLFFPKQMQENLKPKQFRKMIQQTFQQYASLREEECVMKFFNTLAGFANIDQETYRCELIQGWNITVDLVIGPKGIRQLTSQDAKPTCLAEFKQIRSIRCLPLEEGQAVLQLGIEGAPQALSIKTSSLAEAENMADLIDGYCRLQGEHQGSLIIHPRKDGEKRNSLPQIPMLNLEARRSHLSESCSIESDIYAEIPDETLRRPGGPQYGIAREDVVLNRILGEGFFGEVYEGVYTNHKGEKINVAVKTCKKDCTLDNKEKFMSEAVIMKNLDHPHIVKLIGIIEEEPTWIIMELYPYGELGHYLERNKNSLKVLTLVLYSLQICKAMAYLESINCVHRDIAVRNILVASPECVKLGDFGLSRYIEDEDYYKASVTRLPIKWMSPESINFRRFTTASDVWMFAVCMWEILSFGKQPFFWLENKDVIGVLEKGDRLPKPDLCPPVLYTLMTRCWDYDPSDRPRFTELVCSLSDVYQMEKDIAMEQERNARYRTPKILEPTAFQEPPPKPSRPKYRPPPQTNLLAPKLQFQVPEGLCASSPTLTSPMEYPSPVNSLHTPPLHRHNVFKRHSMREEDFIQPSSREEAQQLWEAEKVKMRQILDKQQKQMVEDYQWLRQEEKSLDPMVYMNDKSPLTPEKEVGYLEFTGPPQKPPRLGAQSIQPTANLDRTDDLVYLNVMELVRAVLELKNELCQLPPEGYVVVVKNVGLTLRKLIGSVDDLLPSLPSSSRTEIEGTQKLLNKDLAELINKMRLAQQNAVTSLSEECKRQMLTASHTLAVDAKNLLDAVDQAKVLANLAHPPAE

Regarding `CS(=O)(=O)Nc1ccccc1Nc1nc(Nc2cccc(OCCN)c2)ncc1F` [CZC25342, N-(2-(2-(3-(2-aminoethoxy)phenylamino)-5-fluoropyrimidin-4-ylamino)phenyl)methanesulfonamide], the “Competition % AMPKa1” value in experiment [1] was found to be 95.2%. In experiment [2], the “Competition % MARK2” value was determined as 93.4%. Moreover, in [3], the “Competition % SRC” value worked out at 89.5%. Further, in experiment [4], the “Competition % PYK2” value was found to be 96.3%. Besides, in experiment [5], the “Competition % FLT4” value is 88.2%. In experiment [6], the “Competition % TIE2” value is 91.4%. In addition, the “Competition % MAP3K5” value in experiment [7] is on record as 94.1%. Further, in experiment [8], the “Competition % DDR1” value came out at 94.1%. In experiment [9], the “Competition % TEC” value stood at 89.3%. Moreover, the “Competition % CaMKK2” value in experiment [10] was 96.3%.

In the case of `CS(=O)(=O)Nc1ccccc1Nc1nc(Nc2cccc(OCCN)c2)ncc1Cl` [CZC31326, N-(2-(2-(3-(2-aminoethoxy)phenylamino)-5-chloropyrimidin-4-ylamino)phenyl)methanesulfonamide], at 10 µM the inhibition on NEK9 was 92.4%.
